Measurements reported in the NIST ThermoML archive (doi:10.1021/acs.jced.5b00197).

Key:
[1] = refractive index (Na D-line) (dimensionless); conditions: 94.64 kPa, Liquid, Standard Abbe refractometry
[2] = 96.64 kPa, Liquid, mechanical oscillator
[3] = refractive index (other wavelength) (dimensionless); conditions: 94.64 kPa, Liquid, Standard Abbe refractometry
[4] = refractive index (other wavelength) (dimensionless); xn = mol fraction of the nth substance listed; conditions: 94.64 kPa, Liquid, Standard Abbe refractometry, x2 = 0
[5] = refractive index (Na D-line) (dimensionless); xn = mol fraction of the nth substance listed; conditions: 94.64 kPa, Liquid, Standard Abbe refractometry, x2 = 0
[6] = xn = mol fraction of the nth substance listed; conditions: 96.64 kPa, Liquid, mechanical oscillator, x2 = 0

CC(=O)O [acetic acid]
Conditions | mass density, 293.15 K [kg/m3] | mass density, 298.15 K [kg/m3] | mass density, 303.15 K [kg/m3] | refractive index, 293.15 K | refractive index, 298.15 K | refractive index, 303.15 K
[1] | – | – | – | 1.37224 | 1.37012 | 1.36809
[2] | 1049.63 | 1043.57 | 1037.64 | – | – | –

refractive index, [3]
Conditions | Wavelength=404.7 nm | Wavelength=435.8 nm | Wavelength=486.1 nm | Wavelength=546.1 nm | Wavelength=587.6 nm | Wavelength=632.8 nm | Wavelength=644 nm | Wavelength=706.5 nm
293.15 K | 1.38345 | 1.38034 | 1.37681 | 1.37386 | 1.3723 | 1.37087 | 1.37055 | 1.36896
298.15 K | 1.38126 | 1.37816 | 1.37466 | 1.37174 | 1.37018 | 1.36876 | 1.36844 | 1.36686
303.15 K | 1.37917 | 1.37611 | 1.37261 | 1.36968 | 1.36815 | 1.36675 | 1.36643 | 1.36485

Cc1ccccc1 [toluene]
Conditions | mass density, 293.15 K [kg/m3] | mass density, 298.15 K [kg/m3] | mass density, 303.15 K [kg/m3] | refractive index, 293.15 K | refractive index, 298.15 K | refractive index, 303.15 K
[1] | – | – | – | 1.49687 | 1.49406 | 1.49124
[2] | 866.75 | 861.74 | 856.81 | – | – | –

refractive index, [3]
Conditions | Wavelength=404.7 nm | Wavelength=435.8 nm | Wavelength=486.1 nm | Wavelength=546.1 nm | Wavelength=587.6 nm | Wavelength=632.8 nm | Wavelength=644 nm | Wavelength=706.5 nm
293.15 K | 1.52597 | 1.51768 | 1.50826 | 1.50069 | 1.497 | 1.49379 | 1.49306 | 1.48975
298.15 K | 1.52295 | 1.51473 | 1.50537 | 1.49785 | 1.49419 | 1.49101 | 1.49028 | 1.48697
303.15 K | 1.51996 | 1.51177 | 1.50248 | 1.495 | 1.49137 | 1.4882 | 1.48748 | 1.48419

Cc1ccccc1 [toluene] + CC(=O)O
refractive index, [4]
Conditions | Wavelength=404.7 nm | Wavelength=435.8 nm | Wavelength=486.1 nm | Wavelength=546.1 nm | Wavelength=587.6 nm | Wavelength=632.8 nm | Wavelength=644 nm | Wavelength=706.5 nm
293.15 K | 1.52597 | 1.51768 | 1.50826 | 1.50069 | 1.497 | 1.49379 | 1.49306 | 1.48975
298.15 K | 1.52295 | 1.51473 | 1.50537 | 1.49785 | 1.49419 | 1.49101 | 1.49028 | 1.48697
303.15 K | 1.51996 | 1.51177 | 1.50248 | 1.495 | 1.49137 | 1.4882 | 1.48748 | 1.48419

Conditions | mass density, 293.15 K [kg/m3] | mass density, 298.15 K [kg/m3] | mass density, 303.15 K [kg/m3] | refractive index, 293.15 K | refractive index, 298.15 K | refractive index, 303.15 K
[5] | – | – | – | 1.49687 | 1.49406 | 1.49124
[6] | 866.75 | 861.74 | 856.81 | – | – | –

O [water]
Conditions | mass density, 298.15 K [kg/m3] | mass density, 303.15 K [kg/m3] | refractive index, 293.15 K | refractive index, 298.15 K | refractive index, 303.15 K
[1] | – | – | 1.33308 | 1.33257 | 1.33198
[2] | 996.61 | 994.87 | – | – | –

refractive index, [3]
Conditions | Wavelength=404.7 nm | Wavelength=435.8 nm | Wavelength=486.1 nm | Wavelength=546.1 nm | Wavelength=587.6 nm | Wavelength=632.8 nm | Wavelength=644 nm | Wavelength=706.5 nm
293.15 K | 1.34276 | 1.34021 | 1.33716 | 1.33454 | 1.33313 | 1.33183 | 1.33153 | 1.33003
298.15 K | 1.34222 | 1.33968 | 1.33665 | 1.33402 | 1.33262 | 1.33132 | 1.33102 | 1.32954
303.15 K | 1.34161 | 1.33909 | 1.33604 | 1.33344 | 1.33203 | 1.33073 | 1.33044 | 1.32897

O [water] + CC(=O)O
refractive index, [4]
Conditions | Wavelength=404.7 nm | Wavelength=435.8 nm | Wavelength=486.1 nm | Wavelength=546.1 nm | Wavelength=587.6 nm | Wavelength=632.8 nm | Wavelength=644 nm | Wavelength=706.5 nm
293.15 K | 1.34276 | 1.34021 | 1.33716 | 1.33454 | 1.33313 | 1.33183 | 1.33153 | 1.33003
298.15 K | 1.34222 | 1.33968 | 1.33665 | 1.33402 | 1.33262 | 1.33132 | 1.33102 | 1.32954
303.15 K | 1.34161 | 1.33909 | 1.33604 | 1.33344 | 1.33203 | 1.33073 | 1.33044 | 1.32897

Conditions | mass density, 298.15 K [kg/m3] | mass density, 303.15 K [kg/m3] | refractive index, 293.15 K | refractive index, 298.15 K | refractive index, 303.15 K
[5] | – | – | 1.33308 | 1.33257 | 1.33198
[6] | 996.61 | 994.87 | – | – | –
